Measurements from publication PMC4051503 (2014).

System: d(AAAATTTT)2 (DNA, duplex) AAAATTTT
Test: X-ray crystallography (2.1 Å)
Conditions: 8 mM MnCl2; 40 mM sodium cacodylate pH 6.5, 0.5 mM spermine, 5% MPD, 15 °C; 0.25 mM duplex, 0.75 mM CD27

c1cc(Nc2ccc(NC3=NCCN3)cc2)ccc1NC1=NCCN1
binding: yes
